Assay [1] addresses T1, human Spindlin1_50–262 (Homo sapiens, UniProt Q9Y657). It counts as binding. Set-up: Human Spindlin1_50–262 was cloned into pGEX-6P-1 vector containing an N-terminal GST tag; GST (N, cleaved yes); made in house; host or cells: E. coli BL21(DE3). The note with it: 25 °C; for ΔS / ΔH / K (association constant): ITC, pH 7.5, free wild-type Spindlin1_50–262; for ΔH / N / K (association constant): mean ± SE; for N: ITC stoichiometry, free wild-type Spindlin1_50–262; for K (association constant): One Set of Binding Sites fit. How it is done: Cells were harvested and lysed in lysis buffer: 0.2 M NaCl, 20 mM Tris, pH 8.0 containing 1 mM fresh PMSF. After centrifugation, the GST-tagged Spindlin1_50–262 was purified by a GST affinity column and then the GST tag was cleaved on-column by a home-made P3C protease overnight. The tag-free protein was collected for an anion-exchange chromatography over a HiTrap Q HP column and Superdex G75 columns (GE Healthcare). The Spindlin1_50–262 protein was concentrated to 25 mg/ml in 0.15 M NaCl, 20 mM Tris, pH 8.0, aliquoted and stored at −80 °C for future use. All Spindlin1_50–262 mutants were generated by the QuikChange site-directed mutagenesis strategy and purified using the same procedure as described above.
(§1) Calorimetric experiments were conducted at 25 °C with a MicroCal PEAQ-ITC instrument (Malvern Instruments) as previously described. The Spindlin1_50–262 samples were extensively dialyzed against the buffer containing 20 mM HepesNa (pH 7.5) and 150 mM NaCl. Protein concentration was determined by absorbance spectroscopy at 280 nm. Peptide concentrations were determined by weighing in large quantities. Each ITC titration consisted of 17 successive injections with 0.4 μl for the first and 2.4 μl for the rest. The intervals between injections were 180 s, and the stirring speed was 750 rpm. […] Acquired calorimetric titration data were fitted at 95% confidence and analyzed using Origin 7.0 (GE Healthcare) using the One Set of Binding Sites fitting model. Data represent the mean ± SE. Detailed thermodynamic parameters of each titration are summarized in the Supplementary Table 2.

Assay [2] addresses T1, human Spindlin1_50–262. Put plainly: ITC. For orientation: Isothermal titration calorimetry measures the heat released or taken up as one component is titrated into another.
The next assay relates to HBV RNA. The assay can be described thus: Rescue of HBV transcription/expression in Spindlin1 knockdown HepG2-NTCP cells. Type of assay: cell-based. The note with it: ectopic expression in Spindlin1 knockdown cells. The method, then: Cells were harvested with TRIzol™ Reagent (Invitrogen, Carlsbad, CA). The RNA was extracted and precipitated with equal volumes of isopropanol. The RNA pellet was washed with 75% ethanol and dissolved in DEPC-treated H2O. The RNA solution with 1xRNA loading buffer was incubated at 65 °C heat block for 5 min and put on ice for 5 min. Then the RNA sample was subjected to 1.2% agarose gel electrophoresis (with 1xMOPS buffer and 5% formaldehyde solution) and transferred onto Amersham Hybond-N+ membrane (GE Healthcare). After UV crosslinking, the RNA was detected with DIG-labeled full-length HBV genome and DIG-labeled GAPDH probe (DIG-high prime DNA-labeling and detection starter kit II, Roche, cat. No. 11585614910).

Assay [3] addresses Spindlin1_50-262 & HBx2-21 (Homo sapiens, UniProt Q9Y657). The note with it: ITC; for K (association constant): 25 °C, pH 7.5, mean ± SE; for N / ΔH: mean ± SE. The method, then:
Cells were harvested and lysed in lysis buffer: 0.2 M NaCl, 20 mM Tris, pH 8.0 containing 1 mM fresh PMSF. […] The tag-free protein was collected for an anion-exchange chromatography over a HiTrap Q HP column and Superdex G75 columns (GE Healthcare).
as §1, with “Protein” for “Calorimetric experiments were conducted at 25 °C with a MicroCal PEAQ-ITC instrument (Malvern Instruments) as previously described. The Spindlin1_50–262 samples were extensively dialyzed against the buffer containing 20 mM HepesNa (pH 7.5) and 150 mM NaCl. Protein”

A further assay deals with HBeAg. Particulars: ectopic expression in Spindlin1 knockdown cells. How it is done: (§2) Mutations in full-length Spindlin1 were generated by site-directed mutagenesis and confirmed by DNA sequencing. Plasmid DNA and siRNA transfections were performed using Lipofectamine 3000 reagent (Invitrogen) and Lipofectamine RNAiMAX (Invitrogen) according to the manufacturer’s protocol, respectively.
For infections, cells were incubated with viral supernatants in the presence of 10 µg/ml polybrene.
For siRNA knockdown experiments of HepG2-NTCP cells, the siRNAs (sequences are listed in the Supplementary Table 4) were transfected at 3dpi, and incubated with cells for 24 h. Then the cells were maintained in PMM with 2% FBS with regular medium changing every other day. For cccDNA formation experiment, the siRNAs were transfected 48 h before infection and incubated with cells for 24 h. Then the cells were cultured with PMM medium for another […]. The cells were then infected with HBV at 800GEQ in the presence of 5% PEG8000 for 24 h at 37 °C.
HBeAg levels of HBV infected cells were measured using ELISA kits (Wantai Pharm Inc). Supernatants from HBV infected cells were harvested at each time point examined in the various assays and were diluted 4-fold with DMEM before ELISA.

For the next assay, the system named is HBx. Particulars: Huh7 cells, 48 h after co-transfection, WB. The method, then: as §2
Assay [4] deals with T2, Human Spindlin1 50-262 (human, UniProt Q9Y657 50-262).
T2 construct: also called SPIN1; not shown: GST, N-terminal, cleaved
Put plainly: ITC. The note with it: both partners purified.

Assay [5] addresses T2, Human Spindlin1 50-262. Put plainly: ITC. Particulars: both partners purified. The source holds these as a separate data set.
Assay [6] deals with T2, Human Spindlin1 50-262. The assay can be described thus: ITC. The note with it: both partners purified. This is another data set of the same source.
The target of assay [7] is T2, Human Spindlin1 50-262. The assay can be described thus: ITC. Particulars: both partners purified. The source holds these as a separate data set.
[8] abbreviates: listed as wild-type (WT) Spindlin1.

Where “and” joins values, the source holds several entries; their conditions need not be identical. Equal values may be shown once. Entries after “also recorded” stand apart in the source; their conditions may differ. Read-outs that look alike come from different tables or passages of the source. Where no end group is shown, it is not given here.

T1 sequence (Q9Y657 50-262): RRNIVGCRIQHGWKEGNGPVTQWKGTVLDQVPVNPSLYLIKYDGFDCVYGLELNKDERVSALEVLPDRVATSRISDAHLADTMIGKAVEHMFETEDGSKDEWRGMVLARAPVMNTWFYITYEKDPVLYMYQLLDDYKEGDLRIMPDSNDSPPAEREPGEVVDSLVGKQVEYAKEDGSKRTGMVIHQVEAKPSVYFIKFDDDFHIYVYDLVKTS
T2 sequence (Q9Y657 50-262): as above
Sequence of Spindlin1_50-262 & HBx2-21 (Q9Y657 whole entry, looked up): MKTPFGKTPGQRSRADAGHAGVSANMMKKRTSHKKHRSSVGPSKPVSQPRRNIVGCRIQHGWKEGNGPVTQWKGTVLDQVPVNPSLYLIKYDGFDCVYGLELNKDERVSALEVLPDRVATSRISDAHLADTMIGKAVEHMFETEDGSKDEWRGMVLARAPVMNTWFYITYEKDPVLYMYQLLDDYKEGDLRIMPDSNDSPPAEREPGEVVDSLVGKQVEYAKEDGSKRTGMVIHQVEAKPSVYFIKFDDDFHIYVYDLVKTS

In the case of “AARLCCQLDSARDVLLLRPF-NH2 [WHx, woodchuck HBx N-terminal motif peptide]”, at human Spindlin1_50–262 [1], the ΔS turned out to be 9.96 cal/mol/deg and the ΔH was -4600± 130.4 kal/mol.
Regarding HBx_(11–30) peptide, the fold weaker binding than HBx (2–21) in the assay with human Spindlin1_50–262 [2] was 44 fold.
Consider W72R, for which the “Restoration of HBV transcription/expression” value in the assay with HBV RNA was “not its H3K4me3 and H3K9me3-binding deficient mutants”.
As to “ARTK(m e3)QTAR(me2a)KSTGGKAPRKQL-NH2 [H31-20 K4me3R8me2a, histone H3 peptide]”, in assay [3], the ΔS is listed as -22.0 cal/mol/deg, the “K (association constant)” value turned out to be 4.74e+07 ± 7.62e+06 M⁻¹, the N is 1.0± 0.003 and the ΔH was -17040± 96.9 kal/mol. Also, on human Spindlin1_50–262 [1], the N is recorded as 1.0± 0.004, the ΔS is on record as -23.6 cal/mol/deg, the “K (association constant)” value was 3.2e+07 ± 5.15e+06 M⁻¹ and the ΔH was -17280± 115.8 kal/mol.
For the molecule “HBx_(2–21) peptide (from UniProt Q69607) L18R”, the Kd (commonly the concentration at which binding is half-saturated) in the assay with human Spindlin1_50–262 [2] worked out at 35.8 µM.
With K216S/V218R double mutant, the “Restoration of HBeAg levels” value in the assay with HBeAg was “not the K216S/V218R double mutant that effectively restored”. For the same molecule, the “Interaction with HBx (Co-IP)” value with HBx is “disrupted Spindlin1-HBx engagement both in vitro and in cellular context”; with HBx (listed as Spindlin1 K216S/V218R), “significantly compromised”.
In the assay with human Spindlin1_50–262 [2], HBx_(61–80) peptide returned a fold weaker binding than HBx (2–21) of 55 fold.
For the molecule “Ac-GKGGAKRHRK (me3)VLRDNIQGIT-NH2 [H411-30 K20me3, histone H4 peptide]”, the N in assay [3] is 0.9± 0.010 and 1.0± 0.001. Also, at human Spindlin1_50–262 [1], the N amounted to 1.0± 0.016, the ΔS is reported as -12.3 cal/mol/deg and the ΔH is given as -12920± 254.2 kal/mol.
With Ac-PARDVLCLRPIGAESRGRPL-NH2 [HBx11-30], on human Spindlin1_50–262 [1], the ΔS came to 8.2 cal/mol/deg and the ΔH was -3496± 197.8 kal/mol.
For “AARLCCQLDSSRDVLLLRPL-NH2 [GSHBx, ground squirrel HBx N-terminal motif peptide]” the same measures were 25.3 cal/mol/deg and -987.3± 23.4 kal/mol.
For “ARTK(m e3)QTARK(me2)STGGKA-NH2 [H31-15 K4me3K9me2, histone H3 peptide]”, in assay [3], the ΔS is given as -12.1 cal/mol/deg, the “K (association constant)” value was determined as 1.74e+08 ± 9.28e+07 M⁻¹, the N turned out to be 1.0± 0.004 and the ΔH is listed as -14860± 139.6 kal/mol. On human Spindlin1_50–262 [1], the N was 1.0± 0.002, the ΔS is on record as -15.3 cal/mol/deg, the “K (association constant)” value amounted to 4.18e+07 ± 4.82e+06 M⁻¹ and the ΔH was -14960± 61.22 kal/mol.
On human Spindlin1_50–262 [1], “AARLCCQLDPARDVLCLRPV-NH2 [HBx-D2-21, HBx-D N-terminal motif peptide]” returned a ΔS of 18.0 cal/mol/deg and a ΔH of -3096± 42.71 kal/mol.
Consider HBx2-21 V15R peptide, for which the stoichiometry N (in general, a count of units in the complex or per binding partner) in the assay with human Spindlin1_50–262 [2] is 1.
In the assay with human Spindlin1_50–262 [2], “HBx_(2–21) peptide (from UniProt Q69607) V15R” registered a Kd of 14.4 µM.
Take “wild-type Spindlin1: ectopically expressed wild-type Spindlin1”: the “Restoration of HBeAg levels” value in the assay on HBeAg was “effectively restored the levels of HBV transcription and HBeAg”; with HBeAg (setting [8]), “restore the levels of HBV transcription and HBeAg”. In addition, the “Restoration of HBV transcription/expression” value was “effectively restored the levels of HBV transcription and HBeAg; also recorded: restored HBV expression” in the assay with HBV RNA; “restore the levels of HBV transcription and HBeAg” in the assay with HBV RNA (setting [8]).
With “Ac-CSFSSAGPCALRFTSARRME-NH2 [HBx61-80, HBx array peptide]”, on human Spindlin1_50–262 [1], the ΔS was -1.7 cal/mol/deg and the ΔH is listed as -6319± 252.7 kal/mol.

B1: WHx2-21 peptide (woodchuck HBx) (peptide)
peptide: AARLCCQLDSARDVLLLRPF-NH2
modifications: cysteine pairing not given here
notes: also called FWHx; source: synthetic peptide, bought: Scilight Biotechnology LLC
With B1, in the assay with Human Spindlin1 50-262 [4], the Ka turned out to be 354000 M⁻¹ and the “stoichiometry N” value was 0.9. In the assay with Human Spindlin1 50-262 [5], this molecule showed a dissociation constant (Kd) of 2.9 µM.

B2: GSHBx2-21 peptide (ground squirrel HBx) (peptide)
peptide: AARLCCQLDSSRDVLLLRPL-NH2
modifications: cysteine pairing not given here
notes: source: synthetic peptide, bought: Scilight Biotechnology LLC
B2: in the assay with Human Spindlin1 50-262 [4], the Ka was determined as 1.83e+06 M⁻¹ and the “stoichiometry N” value is 1.1. Moreover, the Kd with Human Spindlin1 50-262 [5] turned out to be 0.62 µM.

B3: H3 1-15 K4me3K9me2 peptide (peptide)
peptide: ARTK(me3)QTARK(me2)STGGKA
notes: also called H3K4me3K9me2; source: synthetic peptide, bought: Scilight Biotechnology LLC
In the assay with Human Spindlin1 50-262 [6], B3 registered a dissociation constant (Kd) of 0.0242 µM. Further, in the assay with Human Spindlin1 50-262 [4], the Ka came to 4.18e+07 M⁻¹.

B4: HBx61-80 peptide (peptide)
peptide: Ac-CSFSSAGPCALRFTSARRME-NH2
modifications: cysteine pairing not given here
notes: as for B2
As to B4, in the assay with Human Spindlin1 50-262 [7], the Kd turned out to be 55.5 µM. In the assay with Human Spindlin1 50-262 [4], the Ka was 18200 M⁻¹ and the “stoichiometry N” value came out at 1.

B5: HBx-D2-21 peptide (peptide)
peptide: AARLCCQLDPARDVLCLRPV-NH2
modifications: cysteine pairing not given here
notes: as for B2
Take B5: in the assay with Human Spindlin1 50-262 [4], the Ka is 1.56e+06 M⁻¹ and the “stoichiometry N” value turned out to be 0.951. Moreover, in the assay with Human Spindlin1 50-262 [5], the Kd is 0.7 µM.

B6: HBx11-30 peptide (peptide)
peptide: Ac-PARDVLCLRPIGAESRGRPL-NH2
notes: as for B2
B6 had a Kd with Human Spindlin1 50-262 [7] of 45.9 µM. Further, in the assay with Human Spindlin1 50-262 [4], the Ka was 22600 M⁻¹ and the “stoichiometry N” value was determined as 1.2.

The values above are taken from publication PMC10400593, “Molecular insights into Spindlin1-HBx interplay and its impact on HBV transcription from cccDNA minichromosome” (Nature Communications, 2023).
